Entries after “also recorded” stand apart in the source; their conditions may differ. One block for each molecule: values may come before it.
Legend:
[1] = tested on: HeLa cells; test: Photobleaching under continuous laser excitation in stained HeLa cells; type: cell-based; conditions: continuous excitation 180 s, 0.6 mW; 405 nm for TPEPy-PF6, 588 nm for MitoTracker Red
[2] = target: T1, caspase-3 (Homo sapiens, UniProt P42574); test: Ac-DEVD-PyTPE fluorescence turn-on assay with caspase-3 in PIPES buffer; type: biochemical
T1 sequence (P42574 29-175 limits assumed): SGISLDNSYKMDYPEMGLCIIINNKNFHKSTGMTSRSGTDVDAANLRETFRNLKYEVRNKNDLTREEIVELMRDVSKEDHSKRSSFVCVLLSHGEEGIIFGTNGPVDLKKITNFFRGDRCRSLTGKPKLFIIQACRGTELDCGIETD
T1 sequence (P42574 176-277 limits assumed): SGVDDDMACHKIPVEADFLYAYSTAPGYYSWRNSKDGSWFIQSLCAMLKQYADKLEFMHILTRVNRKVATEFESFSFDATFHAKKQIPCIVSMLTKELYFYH
Description: [caspase-3]=5 μg mL^−1, [Ac-DEVD-PyTPE]=10 μM.
(§1) Inset: photographs taken under UV illumination. λex=405 nm; λem=610 nm.
Particles with an average diameter of 92 nm formed in addition to the increase of fluorescence in the solution (FIG. 43a). […] The caspase-3/7 catalyzed hydrolysis of Ac-DEVD-PyTPE is shown in the reaction scheme below.
In the absence of caspase-3, nearly no change in fluorescence is observed, confirming that Ac-DEVD-PyTPE is specifically recognized and cleaved by caspase-3.
(§2) As shown, caspase-3 and caspase-7 display respectively about 43- and 36-fold higher changes in (I−I0)/I0 than the other four enzymes.

[3] = tested on: caspase-3 activity in MCF-7 cells; test: CLSM imaging of caspase-3 activity / apoptosis in MCF-7 cells; type: cell-based
Description: FIGS. 46a-46c show normal MCF-7 cells treated with Ac-DEVD-PyTPE (5 μM, 1% DMSO) for 2 h.
FIGS. 46d-46f show apoptotic MCF-7 cells treated with Ac-DEVD-PyTPE (5 μM, 1% DMSO) and caspase-3 antibody. STS (3 μM) was used to induce cell apoptosis. Red=probe fluorescence; Green=immunofluorescence signal generated from anti-caspase-3 primary antibody and a FITC labeled secondary antibody.
All images were acquired in the same way.
Additionally, apoptotic MCF-7 cells were treated with both Ac-DEVD-PyTPE and commercial Annexin V-Alexa Fluor.

[4] = target: T2, caspase-7 (Homo sapiens, UniProt P55210); test: Ac-DEVD-PyTPE fluorescence turn-on assay with caspase-7; type: biochemical; conditions: caspase-7 vs pepsin, trypsin, papain, lysozyme; protein 20 μg mL^−1; λex 405 nm, λem 610 nm
T2 sequence (P55210 24-198 limits assumed): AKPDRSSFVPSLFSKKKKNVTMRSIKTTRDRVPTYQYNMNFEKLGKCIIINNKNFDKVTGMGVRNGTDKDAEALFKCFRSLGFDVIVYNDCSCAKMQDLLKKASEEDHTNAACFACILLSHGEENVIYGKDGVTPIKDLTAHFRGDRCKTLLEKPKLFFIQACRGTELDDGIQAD
T2 sequence (P55210 207-303 limits assumed): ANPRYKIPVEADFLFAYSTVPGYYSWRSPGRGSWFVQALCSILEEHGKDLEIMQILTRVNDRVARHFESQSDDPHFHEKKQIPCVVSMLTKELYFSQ
From the text: as §1, §2

[5] = tested on: subcutaneous C6 tumor; test: In vivo and ex vivo fluorescence imaging of apoptosis in C6 tumor-bearing mice
Description: Only apoptotic tumors were clearly visualized.
Subcutaneous C6 tumor-bearing mice with and without intravenous injection of STS were imaged for 30 min using an IVIS spectrum imaging system. […] In contrast, the fluorescence signals from the tumor-bearing animals without treatment of STS and normal tissues are very weak. […] Additionally, the fluorescence changes in tumoral and normal tissues as a function of time for each experiment are shown in FIG. 50b. A 3-fold fluorescence enhancement of the apoptotic tumoral tissues relative to normal tissues is observed as early as 5 min after injection of Ac-DEVD-PyTPE, but only a slight fluorescence increase is observed over 15 min.
FIG. 50c show IVIS spectrum analysis of apoptotic and non-apoptotic tumors that were excised immediately after in vivo imaging.

[6] = Metabolic viability of MCF-7 cancer cells after incubation with probe; type: cell-based; conditions: human, 5, 10 and 20 μM for 12, 24 and 48 h, read-out: cell viability
From the text: This is indicative of the low cytotoxicity of the Ac-DEVD-PyTPE probe.

[7] = Fluorescent sensing of Hg2+ in aqueous buffer and in solid film
Description: I0=the emission intensity at 640 nm in absence of Hg^2+. Inset: photographs of TPEBe-I in aqueous buffer with [Hg^2+] of 0 and 2.0 mM taken under 365 nm UV illumination. Solution concentration: 20 μM; excitation wavelength: 480 nm.
Black bars represent the addition of different metal ion (2 mM) to solution of the TPEBe-I. Red bars represent the subsequent addition of 2 mM Hg^2+ to the solution. λex=480 nm. λem=640 nm.
Accordingly, in one embodiment, the present subject matter relates to the use of Hg^2+ to bind to iodine ions in TPEBe-I in order to restore the emission of the cationic luminogen. […] In addition, the spectrum slightly red-shifted with increasing concentration of Hg^2+. […] When the concentration of Hg^2+ is 2.0 mM, the emission intensity of TPEBe-I is enhanced 80-fold. Moreover, the emission color also changes from dark into bright red under 365 nm UV illumination. Accordingly, another embodiment of the present subject matter relates to the use of TPEBe-I luminogens as an “off-on” sensor for Hg^2+ in aqueous solution.
In addition, the present subject matter relates to using the TPEBe-I luminogen as a fluorescent sensor for Hg^2+.
This is likely due to protons combining with iodine ions, leading to a faint increase in emission. In contrast, under basic conditions (pH≧7), TPEBe-I in the absence of Hg^2+ is weakly emissive due to the quenching effect of the iodine ions. […] The emission intensity decreases at a pH greater than 8, but is still higher than the emission intensity of TPEBe-I in the absence of Hg^2+. […] The lower emission intensity of TPEBe-I under more basic conditions is attributed to the formation of Hg(OH)2, thereby reducing the amount of free Hg^2+. In addition, the hydroxyl group (OH) in basic conditions can destroy the structure of TPEBe-I, resulting in inactivation of its sensing ability.
In another embodiment, a solid-state fluorescent probe for the detection of Hg^2+ was developed using the TPEBe-I luminogen. […] As shown, the spots of film polluted by the aqueous solution containing Hg^2+ changed to a red color with varying degrees while the untreated surrounding areas show the initial dark color. This illustrates that the solid-state film of TPEBe-I has a very sensitive response to Hg^2+ in a pure aqueous solution. Therefore, one embodiment of the present subject matter relates to the use a TPEBe-I solid-state fluorescent probe for detecting and tracking the amount of Hg^2+ in an aqueous solution. In one embodiment, the detection amount can reach 1 μM ([…]).

[8] = Solubility; conditions: for solubility in common organic solvents: THF, toluene, DCM, chloroform
[9] = Fluorescent sensing of ATP in aqueous solution with 1% DMSO
Description: I0=PL intensity at 620 nm in absence of ATP. Inset in B: plot of (I−I0)/I0 value versus concentration of ATP from 0 to 20 μM.
I0=photoluminescence intensity at 620 nm in absence of nucleotide. Inset: Photographs of TPBBe-I in aqueous solution with 1% DMSO with various nucleotides (600 μM) taken under 365 nm UV illumination.
When the concentration of ATP is 600 μM, the emission intensity of TPEBe-I increases 20-fold. Moreover, the emission color also changes from dark into bright red under 365 nm UV illumination (FIG. 53b). […] Obviously, the value of (I−I0)/I0 has a linear relationship with ATP from 0 to 20 μM.
The fluorescence response of TPEBe-I was carried out using ATP, ADP and AMP. […] Accordingly, one embodiment relates to the use of TPEBe-I as a highly sensitive and selective fluorescent sensor for ATP.

[10] = tested on: C6 tumor; test: In vivo screening of apoptosis inducing agents in C6 tumor-bearing mice; conditions: treated overnight, probe injected into tumor, 15 min; compared with DMSO, cisplatin, sodium ascorbate
Description: C6 tumor-bearing mice were treated with several compounds, namely DMSO, STS, cisplatin (CIS), and sodium ascorbate (Na asb), overnight, and Ac-DEVD-PyTPE was subsequently injected into the tumor directly. After 15 min incubation, the mice were imaged using an IVIS spectrum imaging system.

[11] = tested on: MCF-7 cells; test: In situ screening of apoptosis inducers in MCF-7 cells with Ac-DEVD-PyTPE; type: cell-based; conditions: 3 μM in DMSO, 2 h; compared with sodium ascorbate and cisplatin
Description: [Ac-DEVD-PyTPE]=3 μM. All images were acquired in the same way.
Three known apoptosis inducers, sodium ascorbate, cisplatin and STS, were used to treat MCF-7 cells. After the cells were incubated with Ac-DEVD-PyTPE for 2 h, each compound (3 μM in DMSO) was added into the chamber for an additional 2 h incubation. The apoptosis-inducing capabilities of these agents were evaluated by monitoring the cell fluorescence increase with a confocal microscopy.

[12] = tested on: mitochondria of HeLa cells; test: Living HeLa cell staining and co-staining with MitoTracker Red; type: cell-based; conditions: 15 min
Description: In a further embodiment, the present subject matter is directed to the use of the TPEPy-PF6 luminogen as a fluorescent stain for living cell imaging. Nanoaggregates of TPEPy-PF6 were prepared in minimum essential medium/DMSO mixtures and the HeLa cells were imaged using a standard cell-staining protocol. The living cells were incubated with TPEPy-PF6 (5 μM) for 15 min and then washed three times with phosphate buffered saline solution.
Living cells were incubated with both mitochondria-targeted dye MitoTracker Red (100 nM) and TPEPy-PF6 (5 μM) for 15 min at 37° C. by the above procedure. […] Therefore, one embodiment of the present subject matter relates to the use of the TPEPy-PF6 luminogen to exclusively stain the mitochondria of living cells.

[13] = excised immediately after in vivo imaging

Compound: ClCc1ccc(C2=c3cc4c5c(c3Oc3c2cc2c6c3CCCN6CCC2)CCC[N+]=5CCC4)cc1.[Cl-] [MitoTracker Red, reference compound]
- luminescence intensity remaining relative to initial value [1]: about 20%

Compound: CC(=O)N[C@@H](CC(=O)O)C(=O)N[C@@H](CCC(=O)O)C(=O)N[C@H](C(=O)N[C@@H](CC(=O)O)C(=O)N[C@@H](Cc1cn(CCCC[n+]2ccc(/C=C/c3ccc(C(=C(c4ccccc4)c4ccccc4)c4ccccc4)cc3)cc2)nn1)C(N)=O)C(C)C [Ac-DEVD-PyTPE]
- fluorescence of the probe treated with caspase-3 ([2]; PIPES buffer pH 7.2, caspase-3 5 μg mL^−1, probe 10 μM): strong fluorescence signals
- fold higher change in (I−I0)/I0 than the other four enzymes ([2]; caspase-3 vs pepsin, trypsin, papain, lysozyme, protein 20 μg mL^−1, λex 405 nm, λem 610 nm): about 43 fold
- probe fluorescence in normal un-induced cells ([3]; 5 μM, 1% DMSO, 2 h): extremely low fluorescence signal
- probe fluorescence in STS-induced apoptotic cells ([3]; probe 5 μM, STS 3 μM): strong fluorescence signals
- fold higher change in (I−I0)/I0 than the other four enzymes [4]: ~36 fold
- fluorescence enhancement of apoptotic tumoral tissues relative to normal tissues ([5]; STS pretreatment, 5 min after intratumoral injection of probe): 3 fold
- fluorescence of excised tumor/(+)STS tissues [5, 13]: high fluorescence signal
- fluorescence of excised tumor/(−)STS tissues [5, 13]: almost no fluorescence
- viability [6]: ~100%

Compound: COC[C@@H]1CCCN1S(=O)(=O)c1ccc2c(c1)C(=O)C(=O)N2 [MPS, 5-[(S)-(+)-2-(methoxymethyl)pyrrolidino]sulfonylisatin, reference compound]
- inhibition of caspase-3 cleavage of Ac-DEVD-PyTPE (fluorescence) ([2]; pre-treatment with inhibitor 10 μM, PIPES buffer): Most of the fluorescence was readily competed away
- probe fluorescence in STS-induced cells pre-treated with inhibitor ([3]; inhibitor 10 μM before incubation with Ac-DEVD-PyTPE): greatly reduced

Compound: CN[C@@H]1C[C@H]2O[C@@](C)([C@@H]1OC)n1c3ccccc3c3c4c(c5c6ccccc6n2c5c31)C(=O)NC4 [STS, staurosporine]
- efficacy of apoptosis inducing agent (tumor fluorescence) [10]: strongest fluorescence
- apoptosis-inducing capability (cell fluorescence increase) [11]: strongest fluorescence enhancement

Compound: CC[n+]1c(/C=C/c2ccc(C(=C(c3ccccc3)c3ccccc3)c3ccccc3)cc2)sc2ccccc21 [TPEBe-ClO4]
- emission intensity upon addition of Hg^2+ ([7]; Hg^2+ 0-2.0 mM, pH 7.4 HEPES, 1% DMSO): also increased
- solubility in common organic solvents [8]: soluble
- solubility in water [8]: insoluble

Now from value to molecule, other results behind:

- solubility in common organic solvents [8]: soluble
- solubility in water [8]: insoluble
Compound: CC[n+]1c(/C=C/c2ccc(C(=C(c3ccccc3)c3ccccc3)c3ccccc3)cc2)sc2ccccc21 [TPEBe-I]
- emission intensity enhancement ([7]; Hg^2+ 2.0 mM, luminogen 20 μM, pH 7.4 HEPES, 1% DMSO, λex 480 nm): 80 fold
- emission change with other metal ions ([7]; Zn, Ni, Co, Cd, Cu, Mn, Ca, Fe, Mg, Ag, Pd ions 2.0 mM): negligible changes
- detection amount of Hg^2+ ([7]; solid-state film, aqueous Hg^2+ 5 μL): 1 µM
- emission intensity increase ([9]; ATP 600 μM, luminogen 20 μM, λex 480 nm): 20 fold
- emission change with ADP and AMP ([9]; other nucleotides, aqueous solution with 1% DMSO): negligible changes

- solubility in common organic solvents [8]: soluble
- solubility in water [8]: insoluble; also recorded: not soluble
Compound: CC[n+]1c(/C=C/c2ccc(C(=C(c3ccccc3)c3ccccc3)c3ccccc3)cc2)sc2ccccc21 [TPEBe-PF6]

- luminescence intensity remaining relative to initial value [1]: ~70%
- solubility in water [8]: not soluble
Compound: C[n+]1ccc(/C=C/c2ccc(C(=C(c3ccccc3)c3ccccc3)c3ccccc3)cc2)cc1 [TPEPy-PF6]
- mitochondria staining: position, shape and amounts compared with MitoTracker Red ([12]; 5 μM with MitoTracker Red 100 nM, 37° C.): the same as for MitoTracker Red
- toxicity to living cells (cell morphology) ([12]; 5 μM): low toxicity
